{"source": "patent EP2929785A1", "about": "“A PLA inhibitor for inhibition of fat absorption” (PAT GmbH, priority 2014, dated 2015)", "key": {"HepG2 cells [1]": {"test_system": "HepG2 cells", "assay": "Fatty acid ([3H]oleate:albumin) influx in HepG2 cells", "format": "cell-based, human"}, "cytosolic LPC": {"test_system": "cytosolic LPC", "assay": "Cytosolic LPC concentration in HepG2 cells", "format": "cell-based, human", "conditions": "Homo sapiens, HepG2, 0.5 h; 30 min treatment (Fig. 7); read-out: suppression of cytosolic LPC (IC50)", "description": "LPC concentration in cytosolic supernatants was measured as previously described (Kishimoto T et al. Clin. Biochem. 2002; 35: 411-416)."}, "[2]": {"biological_target": "T1, organic anion-transporting polypeptide 1 in HepG2 cells (Homo sapiens, UniProt P46721)", "T1 construct": "host or cells: HepG2 (endogenous)", "T1 sequence (P46721 1-670)": "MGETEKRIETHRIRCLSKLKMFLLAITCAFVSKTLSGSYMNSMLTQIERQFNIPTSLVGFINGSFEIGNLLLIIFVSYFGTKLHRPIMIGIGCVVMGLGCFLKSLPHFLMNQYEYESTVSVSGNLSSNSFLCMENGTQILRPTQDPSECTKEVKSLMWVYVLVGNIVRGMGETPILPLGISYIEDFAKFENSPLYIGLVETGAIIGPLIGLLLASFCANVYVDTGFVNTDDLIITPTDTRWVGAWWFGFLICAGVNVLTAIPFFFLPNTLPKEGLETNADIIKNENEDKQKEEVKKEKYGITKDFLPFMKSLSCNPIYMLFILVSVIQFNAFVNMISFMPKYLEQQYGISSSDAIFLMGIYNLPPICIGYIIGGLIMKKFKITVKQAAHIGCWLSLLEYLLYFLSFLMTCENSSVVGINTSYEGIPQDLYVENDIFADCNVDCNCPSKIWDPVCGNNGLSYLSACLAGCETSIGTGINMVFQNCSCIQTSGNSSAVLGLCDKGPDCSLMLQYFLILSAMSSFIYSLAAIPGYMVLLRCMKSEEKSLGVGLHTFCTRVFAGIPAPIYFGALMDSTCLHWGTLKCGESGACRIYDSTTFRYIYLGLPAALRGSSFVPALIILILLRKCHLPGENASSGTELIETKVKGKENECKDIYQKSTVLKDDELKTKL", "conditions": "uptake by HepG2 cells; Chamulitrat et al. 2009; read-out: half-maximal inhibitory concentration (IC50) for competition with UDCA-LPE uptake; cited from earlier work"}, "[3]": {"test_system": "DRM-PM proteins iPLA2ß, CD36, FABPPM, caveolin1", "assay": "DRM-PM protein levels in HepG2 cells by semi-quantitative densitometry", "format": "cell-based, human", "conditions": "bafilomycin 50 nM, 16 h"}, "[4]": {"test_system": "transcripts of all complex subunits", "assay": "In vitro transcription in native HepG2 nuclear extracts exposed to LPC-conditioned delipidated cytosol", "format": "biochemical, human", "conditions": "delipidated cytosol incubated with LPC 1 h"}, "HepG2 cells [5]": {"test_system": "HepG2 cells", "assay": "[3H]glucose influx in HepG2 cells", "format": "cell-based, human", "conditions": "at 10 mM glucose; MßCD"}}, "note": "Peptide text beside a SMILES is read from it. * marks the point of attachment. Cbz = O=C(OCc1ccccc1)*", "data": [{"compound": "O=C1O/C(=C/Br)CCC1c1cccc2ccccc12", "note": "(stereo not shown) [BEL, bromoenol lactone, reference compound]", "values": [{"measurement": "IC50", "setting": "HepG2 cells [1]; Homo sapiens, HepG2, 1-h treatment with increasing concentrations (Fig. 2A), read-out: inhibition of fatty acid influx (IC50)", "result": 52, "unit": "µM"}, {"measurement": "IC50", "setting": "cytosolic LPC", "result": 43, "unit": "µM"}]}, {"compound": "CC(C)C[C@@H](C=O)NC(=O)[C@H](CC(C)C)NC(=O)[C@H](CC(C)C)NC(=O)OCc1ccccc1", "note": "[MG132, reference compound] (Cbz-Leu-Leu-Leu-aldehyde)", "values": [{"measurement": "effect on fatty acid uptake", "setting": "HepG2 cells [1]", "result": "no effect on uptake"}]}, {"compound": "O=C([O-])[C@H](O)[C@@H](O)[C@H](O)[C@H](O)CO.[Na+]", "note": "[Na-gluconate, reference compound]", "values": [{"measurement": "passive translocation component of fatty acid influx", "setting": "HepG2 cells [1]", "result": "inhibited to negligible levels"}]}, {"compound": "C[C@H](CCC(=O)O)[C@H]1CC[C@H]2[C@@H]3[C@@H](O)C[C@@H]4C[C@H](O)CC[C@]4(C)[C@H]3CC[C@]12C", "note": "[UDCA, ursodeoxycholic acid]", "values": [{"measurement": "IC50", "setting": "[2]", "result": 20, "unit": "µM"}]}, {"compound": "CO/C1=C\\C(C)=C\\[C@@H](C)[C@@H](O)[C@@H](C)C/C(C)=C/C=C/[C@H](OC)[C@@H]([C@@H](C)[C@@H](O)[C@H](C)[C@@]2(O)C[C@@H](O)[C@H](C)[C@@H](C(C)C)O2)OC1=O", "note": "[bafilomycin]", "values": [{"measurement": "fatty acid influx", "setting": "HepG2 cells [1]; bafilomycin 50 nM, 16 h, untreated 26.95 ± 2.4", "result": "33.33 ± 5.1", "unit": "nmol/mg protein/min"}, {"measurement": "increase in DRM-PM CD36", "setting": "[3]", "result": "40.85 ± 10.56", "unit": "%"}, {"measurement": "increase in DRM-PM FABPPM", "setting": "[3]", "result": "25.99 ± 3.35", "unit": "%"}, {"measurement": "increase in DRM-PM caveolin1", "setting": "[3]", "result": "60.76 ± 7.03", "unit": "%"}, {"measurement": "increase in DRM-PM iPLA2ß", "setting": "[3]", "result": "51.56 ± 9.85", "unit": "%"}]}, {"compound": "lysophosphatidylcholine [LPC]", "values": [{"measurement": "LPC concentration at which the transcripts of all complex subunits were downregulated", "setting": "[4]", "result": 5, "unit": "µmol/mg protein"}]}, {"compound": "methyl-beta-cyclodextrin [MßCD, reference compound]", "values": [{"measurement": "additional reduction of fatty acid influx", "setting": "HepG2 cells [1]", "result": 60, "unit": "%"}, {"measurement": "influx of [3H]glucose", "setting": "HepG2 cells [5]", "result": "135.70 ± 14.7", "unit": "nmol/mg protein/min"}]}]}
